# Where no end group is shown, it is not given here.
# Target: LC8 (UniProt P63167)
# Test: ITC of synthetic peptides binding to LC8
# Settings: Fig 3B; ITC, 25°C, 50 mM NaCl, 50 mM NaPO4, 1 mM NaN3, pH 7.5; single-site model; average of two to three independent experiments; read-out: Kd
# Chain of LC8 (P63167 whole entry): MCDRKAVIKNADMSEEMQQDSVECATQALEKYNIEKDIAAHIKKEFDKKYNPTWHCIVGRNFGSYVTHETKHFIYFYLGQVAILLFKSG
row,Sequence,Kd [µM]
1,"ISRMTQTP [RAVL, synthesized to validate previous data]",8
2,"RNSQTQTD [VP35(EBV), synthesized to validate previous data]",0.8
3,"VAQGTQTP [BSN^III, synthesized to validate previous data]",5.3

# Same assay, conditions: ITC, 25°C, pH 7.5; single-site model; read-out: Kd
row,Sequence,Kd [µM]
1,"KDGDTQTD [HTATSF1, peptide from HIV Tat-specific factor 1, UniProt O43719, predicted by LC8Pred]",10

# Same assay, conditions: ITC, 25°C, pH 7.5; strong = Kd fit, weak = heat but not fit (>25 μM)
row,Sequence,binding to LC8 via ITC (in words)
1,"KDGDTQTD [HTATSF1, peptide from HIV Tat-specific factor 1, UniProt O43719, predicted by LC8Pred]",“strong” binder
2,"KTLTFSGSSQTVTP [QSER1, synthetic peptide from QSER1, UniProt Q2KHR3]",nonbinders
3,"RTSETNTP [NIN, peptide from ninein, UniProt Q8N4C6, predicted by LC8Pred]",bound to LC8
4,"SKTQQTFGSQTECT [TOGARAM1, synthetic peptide from TOGARAM1, UniProt Q9Y4F4]",weak binders
5,"SSTEVQVE [OTOF, peptide from otoferlin, UniProt Q9HC10, predicted by LC8Pred]",bound to LC8
6,STQTPSPAPASDMP [BSN-shift],failed to demonstrate even weak binding to LC8

# Same assay, conditions: Table 1, peptides synthesized from phage display hits; ITC, 25°C, 50 mM sodium phosphate, 50 mM NaCl, 1 mM sodium azide, 5 mM β-mercaptoethanol, pH 7.5; 500 μM peptide into 25 μM LC8
row,Sequence,Binder?
1,"AASLIQKMLQTDPTAR [PLK1, synthetic peptide from PLK1, UniProt P53350]",N
2,"AKESCNMETQTSST [OFD1, synthetic peptide from OFD1, UniProt O75665]",Y
3,"CLKETLQITQTEVQ [NFYC, synthetic peptide from NFYC, UniProt Q13952]",N
4,"DDHSGNAQVTQTKFD [DDX1, synthetic peptide from DDX1, UniProt Q92499]",N
5,DDNHWTRSTQTTRE [MUC4],Y
6,"DDPMYSSQTQTYGD [KCNQ2, synthetic peptide from KCNQ2, UniProt O43526]",N
7,"DDSGGNATTQTTSD [ROR1, synthetic peptide from ROR1, UniProt Q01973]",Weak^a (Weak binders are those with affinities >25 μM)
8,"DERLMCTGSQTFDD [EFL1, synthetic peptide from EFL1, UniProt Q7Z2Z2]",N
9,"EGYRGTANTTTAAYLA [MSTL1, synthetic peptide from MSTL1, UniProt Q2TV78]",N
10,"ESGDGNTGTQTNGL [POU2F1, synthetic peptide from POU2F1, UniProt P14859]",N
11,"GQGAALTTATQTTHLE [GP1BA, synthetic peptide from GP1BA, UniProt P07359]",Weak^a (Weak binders are those with affinities >25 μM)
12,"ITSYNSQGTQLTVE [KY, synthetic peptide from KY, UniProt Q8NBH2]",N
13,"KHSGRQLTLQHHMG [CUL3, synthetic peptide from CUL3, UniProt Q13618]",N
14,"KITFTKPSTQTTNT [EMSY, synthetic peptide from EMSY, UniProt Q7Z589]",N
15,"KTLTFSGSSQTVTP [QSER1, synthetic peptide from QSER1, UniProt Q2KHR3]",N
16,"LPRKVDTAAQTNSR [IRS1, synthetic peptide from IRS1, UniProt P35568]",N
17,"LQETLTTSSQANLS [PPP2R3A, synthetic peptide from PPP2R3A, UniProt Q06190]",N

row,Sequence,Binder?
1,"NQSFLRTPIQRTPH [SAV1, synthetic peptide from SAV1, UniProt Q9H4B6]",N
2,"PLQATISKSQTNPV [UBN2, synthetic peptide from UBN2, UniProt Q6ZU65]",N
3,"RAAALPEETRSSRR [ZNF469, synthetic peptide from ZNF469, UniProt Q96JG9]",N
4,"RGDGSDVSSQTPQT [ANKIB1, synthetic peptide from ANKIB1, UniProt Q9P2G1]",N
5,"RSFVLPVESTQDVSSQ [CRYBG1, synthetic peptide from CRYBG1, UniProt Q9Y4K1]",N
6,"SFRHPGYSTQTHVN [KLK7, synthetic peptide from KLK7, UniProt P49862]",N
7,"SKTQQTFGSQTECT [TOGARAM1, synthetic peptide from TOGARAM1, UniProt Q9Y4F4]",Weak^a (Weak binders are those with affinities >25 μM)
8,"SMATPSSSTQTSGT [MUC5B-3, synthetic peptide from MUC5B, UniProt Q9HC84, residues 2,673-2,686]",N
9,"SPSPTGLPTQTPGF [ARAP3, synthetic peptide from ARAP3, UniProt Q8WWN8]",Weak^a (Weak binders are those with affinities >25 μM)
10,"SSRSAFSPLQPNAS [DMRTA2, synthetic peptide from DMRTA2, UniProt Q96SC8]",N
11,STQTPSPAPASDMP [BSN-shift],N
12,"TEAKDQCSTQTDFN [EPAS1, synthetic peptide from EPAS1, UniProt Q99814]",N
13,"TLQQPLELTASQLPAG [OTOG, synthetic peptide from OTOG, UniProt Q6ZRI0]",N
14,"TLVSTASGTQTVFP [SH3RF2, synthetic peptide from SH3RF2, UniProt Q8TEC5]",N
15,"TPTPTPTGTQTPTT [MUC2, synthetic peptide from MUC2, UniProt Q02817]",N
16,TQDDYFKDKRVHHFRRS [DAZL],N
17,"TTLPVLTSTATKST [MUC5B-1, synthetic peptide from MUC5B, UniProt Q9HC84, residues 3,049-3,062]",N

# Same assay, conditions: Table 2, peptides synthesized from favorable sequence comparisons (PSSM); ITC, 25°C, pH 7.5; 500 μM peptide into 25 μM LC8
row,Sequence,Binder?
1,"AQPKQKLDTSIQTEYP [MT/HEL (TMV), synthetic peptide from MT/HEL (TMV), UniProt P03586]",N
2,"DFTPAFADFGRQTPGG [EIF4G3, synthetic peptide from EIF4G3, UniProt O43432]",N
3,"KPFMLDEEGDTQTEET [EIF2S2, synthetic peptide from EIF2S2, UniProt P20042]",N
4,"KSVAENGDTDTQTSMF [ZZZ3, synthetic peptide from ZZZ3, UniProt Q8IYH5]",N
5,"MDDIFTQCREGN [ILK, synthetic peptide from ILK, UniProt Q13418]",N
6,"NKVFAKLHHNTQTFQA [CCL25, synthetic peptide from CCL25, UniProt O15444]",N
7,TQDDYFKDKRVHHFRRS [DAZL],N
8,"YELMASLDQPTQTVVM [EIF3C, synthetic peptide from EIF3C, UniProt Q99613]",N
9,"YGPDGEETETQTCPP [PRSS36, synthetic peptide from PRSS36, UniProt Q5K4E3]",N
10,"YGQIAPENGTQTPSP [ITGAX, synthetic peptide from ITGAX, UniProt P20702]",N
11,"YHHRILEAKSIQTSPT [FMN2, synthetic peptide from FMN2, UniProt Q9NZ56]",N
12,"YKIEIPTQCPSCGSK [DNLJ2 (phage T5), synthetic peptide from DNLJ2 (phage T5), UniProt Q5DMI6]",N

# Same assay, conditions: pH 7.5
row,Sequence,Kd [µM]
1,PRATAEFSTQTPSP [BSN^II],3.8

# Target: LC8 (UniProt P63167)
# Test: not given
# Settings: rotavirus A VP4 residues 644–651; ref Martínez-Moreno et al, 2003; cited from earlier work
# From the text: We scanned Homo sapiens and viral proteomes for potential LC8-binding sequences based upon: (1) their propensity for disorder, (2) their sequence conservation across related species, and (3) the sequence’s similarity to known motifs. This final parameter used a PSSM based on the relative enrichment or depletion of each residue in a potential sequence, weighted by amino acid frequency. Enrichment and depletion PSSMs were populated using sequences that interact with LC8, verified either by mutagenesis or in vitro assays. ITC experiments were performed on 19 synthetic peptides with high-scoring s ...
row,Sequence,binding to LC8 (in words)
1,"IDMSTQIG [rotavirus A VP4 residue position 644–651, site predicted and tested in a previous study]",did not bind LC8

# Reference: article PMC6607443, “Systematic identification of recognition motifs for the hub protein LC8” (Life Science Alliance, 2019)
